From patent US20070141141A1, “Pharmaceutical composition” (ASTRAZENECA AB, priority 2003, published 2007)

Experiments:
[1] = pH shift dissolution test (pH 1.5 to 6.5); type: physicochemical; details: for % Agent in Solution t = 2 mins: 2 minutes after adjustment of medium from pH 1.5 to pH 6.5, 37° C.; for % Agent in Solution t = 30 mins: 30 minutes after adjustment of medium from pH 1.5 to pH 6.5, 37° C.; for % Agent in Solution t = 60 mins: 60 minutes after adjustment of medium from pH 1.5 to pH 6.5, 37° C.; for % Agent in Solution t = 0 (˜pH 1.5): % by weight dissolved after 60 minutes in 0.07N HCl/0.2% NaCl medium, 37° C., before pH shift, >100% from HPLC experimental error; for Mean pH of medium at 60 minutes after pH adjustment (n = 2): pH shift test, 60 minutes after adjustment from pH 1.5 to pH 6.5
Description: The vial was then rinsed with a further 50 ml of fresh dissolution medium and the washings added to the main dissolution medium to ensure complete transfer of the composition (total volume of medium 500 ml). The Control sample was weighed into a volumetric flask and pre-dissolved in 50 ml of dissolution medium via sonication. The composition was then added to 400 ml of dissolution medium. The flask was rinsed with a further 50 ml of fresh dissolution medium and the washings added to the main dissolution medium to ensure complete transfer of the composition (total volume of medium=500 ml). After 60 minutes at 37° C. (paddle speed 100 rpm) a sample (5 ml) was taken and 5 ml of fresh medium was added to retain a constant volume of dissolution medium.
The resulting solution was then made up to 100 ml with MilliQ water.
Samples (5 ml) were then removed with a plastic syringe at 2, 5, 15, 30, 45 and 60 minutes after pH adjustment and fresh medium (pH 6.5) added to maintain a constant volume of dissolution medium. […] ODS-3^1. (with guard) • detection wavelength: 247 nm • flow rate: 0.9 ml/min • injection volume: 20 μl • retention time: approximately 6 minutes
Footnote: column ex Hichrom containing 3 μm beads.

pH 6.5 dissolution test = type: physicochemical; details: for % Agent in solution after 5 minutes in pH 6.5 medium / % Agent in solution after 30 minutes in pH 6.5 medium / % Agent in solution after 60 minutes in pH 6.5 medium: 37° C., 500 ml, 250 mg Agent; for Mean pH of medium at 60 minutes (n = 2) / Mean pH of medium at end of experiment (n = 2): pH 6.5 dissolution test; for Mean pH of medium at end of experiment (n = 2): final pH measured after 60 minutes
Description: The following test measures dissolution of a composition in a pH 6.5 dissolution medium and simulates the pH environment found in the upper intestine.
The composition to be tested was placed into a 500 ml of a stirred dissolution medium at pH 6.5 at 37° C. (paddle speed 100 rpm). […] A fresh sample of dissolution medium was added after every sampling time point to maintain a constant volume of 500 ml dissolution medium throughout the test.
The vial was then rinsed with a further 50 ml of fresh dissolution medium and the washings added to the main dissolution medium to ensure complete transfer of the composition (total volume of dissolution medium=500 ml).

[2] = pKa and pH dependent aqueous solubility of the Agent; type: physicochemical
[3] = tested on: non-small-cell lung cancer; details: 250 mg/day, non-small-cell lung cancer patients, IDEAL 1 and 2; cited from earlier work

Structure (SMILES): COc1cc2ncnc(Nc3ccc(F)c(Cl)c3)c2cc1OCCCN1CCOCC1 [Agent, 4-(3′-chloro4′-fluoroanilino)-7-methoxy-6-(3-morpholinopropoxy)quinazoline]
- % Agent in Solution t = 2 mins ([1]; listed as Control): 6.50%
- % Agent in Solution t = 30 mins ([1]; listed as Control): 3.04%
- % Agent in Solution t = 60 mins ([1]; listed as Control): 2.27%
- % Agent in Solution t = 0 (˜pH 1.5) ([1]; listed as Control): 102.61%
- Mean pH of medium at 60 minutes after pH adjustment (n = 2) ([1]; listed as Control): 6.55
- % Agent in solution after 5 minutes in pH 6.5 medium (pH 6.5 dissolution test; listed as Control): 0.70%
- % Agent in solution after 30 minutes in pH 6.5 medium (pH 6.5 dissolution test; listed as Control): 1.52%
- % Agent in solution after 60 minutes in pH 6.5 medium (pH 6.5 dissolution test; listed as Control): 1.40%
- Mean pH of medium at 60 minutes (n = 2) (pH 6.5 dissolution test; listed as Control): 6.52
- Mean pH of medium at end of experiment (n = 2) (pH 6.5 dissolution test; listed as Control): 6.52
- Solubility (in words) ([2]; free-base form, above pH 7): practically insoluble
- Solubility (in words) ([2]; free-base form, pH 1): soluble
- Solubility: aqueous solvent required to dissolve 1 g of Agent ([2]; free-base form, pH 6): ≥ 10000 mL
- pKa ([2]; two basic groups): ~5.3
- adverse events [3]: majority of adverse events generally being mild to moderate skin and gastrointestinal disorders
- response rates [3]: 11.8-18.4%

Structure (SMILES): COc1cc2ncnc(Nc3ccc(F)c(Cl)c3)c2cc1OCCCN1CCOCC1 [Comparative 4, 4-(3′-chloro4′-fluoroanilino)-7-methoxy-6-(3-morpholinopropoxy)quinazoline]
- % Agent in Solution t = 2 mins [1]: 19.56%
- % Agent in Solution t = 30 mins [1]: 5.16%
- % Agent in Solution t = 60 mins [1]: 3.30%
- % Agent in Solution t = 0 (˜pH 1.5) [1]: 97.74%
- Mean pH of medium at 60 minutes after pH adjustment (n = 2) [1]: 6.32
- % Agent in solution after 5 minutes in pH 6.5 medium (pH 6.5 dissolution test): 3.52%
- % Agent in solution after 30 minutes in pH 6.5 medium (pH 6.5 dissolution test): 1.54%
- % Agent in solution after 60 minutes in pH 6.5 medium (pH 6.5 dissolution test): 1.21%
- % Agent in solution after 60 minutes in pH 6.5 medium (pH 6.5 dissolution test; listed as Comparative Example 4): 1.21%
- Mean pH of medium at 60 minutes (n = 2) (pH 6.5 dissolution test): 6.33
- Mean pH of medium at end of experiment (n = 2) (pH 6.5 dissolution test): 6.33
